Results: ChEMBL document CHEMBL1201862, “PubChem BioAssay data set” (2004)
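Each compound was tested at five concentrations against cells in 96-well plates for 48 hours. Here, GI50 denotes the concentration required for 50% inhibition of growth.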 The source made the active and inactive calls. Cut-off read from the data, not from the text of the source: active = GI50 up to about 1.1 µM and inactive = higher.

What was measured:
Assay in all cases: DTP human tumour cell line panel, 48 h
SK-MEL-2 = system: SK-MEL-2
HCT-116 = system: HCT-116
SF-268 = system: SF-268
OVCAR-3 = system: OVCAR-3
SN12C = system: SN12C
SNB-75 = system: SNB-75
NCI-H522 = system: NCI-H522
A498 = system: A498
UACC-257 = system: UACC-257
OVCAR-4 = system: OVCAR-4
UO-31 = system: UO-31
NCI-H23 = system: NCI-H23
RXF 393 = system: RXF 393
HT-29 = system: HT-29
LOX IMVI = system: LOX IMVI
UACC-62 = system: UACC-62
M14 = system: M14
NCI-H226 = system: NCI-H226
SR = system: SR

Structure (SMILES): CS(=O)(=O)N(CCC#N)c1ccc(/C=N/NC(=O)CC(=O)Nc2cccc(Cl)c2)cc1
- GI50 (SK-MEL-2): > 100 µM (inactive)
- GI50 (HCT-116): > 100 µM (inactive)
- GI50 (SF-268): > 100 µM (inactive)
- GI50 (OVCAR-3): > 100 µM (inactive)
- GI50 (SN12C): > 100 µM (inactive)
- GI50 (SNB-75): > 100 µM (inactive)
- GI50 (NCI-H522): > 100 µM (inactive)
- GI50 (A498): > 100 µM (inactive)
- GI50 (UACC-257): > 100 µM (inactive)
- GI50 (OVCAR-4): > 100 µM (inactive)
- GI50 (UO-31): > 100 µM (inactive)
- GI50 (NCI-H23): > 100 µM (inactive)
- GI50 (RXF 393): > 100 µM (inactive)
- GI50 (HT-29): > 100 µM (inactive)
- GI50 (LOX IMVI): > 100 µM (inactive)
- GI50 (UACC-62): > 100 µM (inactive)
- GI50 (M14): > 100 µM (inactive)
- GI50 (NCI-H226): > 100 µM (inactive)

Structure (SMILES): CC1CCc2c(sc3ncnc(N/N=C/c4ccc(Cl)c(Cl)c4)c23)C1 (stereo unspecified)
- GI50 (SK-MEL-2): 10.3 µM (inactive)
- GI50 (HCT-116): 4.55 µM (inactive)
- GI50 (SF-268): 13.3 µM (inactive)
- GI50 (OVCAR-3): 17 µM (inactive)
- GI50 (SN12C): 19.4 µM (inactive)
- GI50 (SNB-75): 15.1 µM (inactive)
- GI50 (NCI-H522): 5.45 µM (inactive)
- GI50 (SR): 4.83 µM (inactive)
- GI50 (UACC-257): 31 µM (inactive)
- GI50 (UO-31): 12.2 µM (inactive)
- GI50 (NCI-H23): 13.2 µM (inactive)
- GI50 (RXF 393): 20.9 µM (inactive)
- GI50 (HT-29): 13.6 µM (inactive)
- GI50 (LOX IMVI): 11.9 µM (inactive)
- GI50 (UACC-62): 18.2 µM (inactive)
- GI50 (M14): 14.3 µM (inactive)
- GI50 (NCI-H226): 16.4 µM (inactive)

Structure (SMILES): N#Cc1cc([N+](=O)[O-])ccc1NC(=O)C(=O)Nc1n[nH]c(N)n1
- GI50 (SK-MEL-2): > 100 µM (inactive)
- GI50 (HCT-116): > 100 µM (inactive)
- GI50 (SF-268): > 100 µM (inactive)
- GI50 (OVCAR-3): > 100 µM (inactive)
- GI50 (SN12C): > 100 µM (inactive)
- GI50 (SNB-75): > 100 µM (inactive)
- GI50 (NCI-H522): > 100 µM (inactive)
- GI50 (A498): > 100 µM (inactive)
- GI50 (UACC-257): > 100 µM (inactive)
- GI50 (OVCAR-4): > 100 µM (inactive)
- GI50 (UO-31): > 100 µM (inactive)
- GI50 (NCI-H23): > 100 µM (inactive)
- GI50 (RXF 393): > 100 µM (inactive)
- GI50 (HT-29): > 100 µM (inactive)
- GI50 (LOX IMVI): > 100 µM (inactive)
- GI50 (UACC-62): > 100 µM (inactive)
- GI50 (M14): > 100 µM (inactive)
- GI50 (NCI-H226): 86.3 µM (inactive)

Structure (SMILES): CCOC(OC(C)=O)[C@@H]1C=C[C@H](C)N(c2ccc([N+](=O)[O-])cc2)O1 (stereo partly specified)
- GI50 (SK-MEL-2): 4.26 µM (inactive)
- GI50 (HCT-116): 1.25 µM (inactive)
- GI50 (SF-268): 3.13 µM (inactive)
- GI50 (OVCAR-3): 5.66 µM (inactive)
- GI50 (SN12C): 3.4 µM (inactive)
- GI50 (SNB-75): 4.79 µM (inactive)
- GI50 (NCI-H522): 3.16 µM (inactive)
- GI50 (A498): 27.6 µM (inactive)
- GI50 (UACC-257): 9.82 µM (inactive)
- GI50 (OVCAR-4): 6.49 µM (inactive)
- GI50 (UO-31): 3.45 µM (inactive)
- GI50 (NCI-H23): 2.84 µM (inactive)
- GI50 (RXF 393): 0.759 µM (active)
- GI50 (HT-29): 3.17 µM (inactive)
- GI50 (LOX IMVI): 1.87 µM (inactive)
- GI50 (UACC-62): 2.54 µM (inactive)
- GI50 (M14): 3.06 µM (inactive)
- GI50 (NCI-H226): 5.57 µM (inactive)

Structure (SMILES): Nc1ccccc1C(=O)/C=C/c1ccccc1O
- GI50 (SK-MEL-2): 28.3 µM (inactive)
- GI50 (HCT-116): 38.2 µM (inactive)
- GI50 (SF-268): 56.5 µM (inactive)
- GI50 (OVCAR-3): 31.4 µM (inactive)
- GI50 (SN12C): 55.2 µM (inactive)
- GI50 (SNB-75): 17.5 µM (inactive)
- GI50 (NCI-H522): 34.5 µM (inactive)
- GI50 (A498): > 100 µM (inactive)
- GI50 (UACC-257): 15.1 µM (inactive)
- GI50 (OVCAR-4): 48.6 µM (inactive)
- GI50 (UO-31): 58.5 µM (inactive)
- GI50 (NCI-H23): 56 µM (inactive)
- GI50 (RXF 393): 61.1 µM (inactive)
- GI50 (HT-29): > 100 µM (inactive)
- GI50 (LOX IMVI): 43.8 µM (inactive)
- GI50 (UACC-62): 57.1 µM (inactive)
- GI50 (M14): 32.3 µM (inactive)
- GI50 (NCI-H226): > 100 µM (inactive)

Structure (SMILES): CC(=O)NC(CCCNCc1ccccc1)C(=O)NCc1ccccc1 (stereo unspecified)
- GI50 (SK-MEL-2): > 100 µM (inactive)
- GI50 (HCT-116): > 100 µM (inactive)
- GI50 (SF-268): > 100 µM (inactive)
- GI50 (OVCAR-3): > 100 µM (inactive)
- GI50 (SN12C): > 100 µM (inactive)
- GI50 (SNB-75): 87.3 µM (inactive)
- GI50 (NCI-H522): > 100 µM (inactive)
- GI50 (A498): > 100 µM (inactive)
- GI50 (UACC-257): > 100 µM (inactive)
- GI50 (OVCAR-4): > 100 µM (inactive)
- GI50 (UO-31): > 100 µM (inactive)
- GI50 (NCI-H23): > 100 µM (inactive)
- GI50 (RXF 393): > 100 µM (inactive)
- GI50 (HT-29): > 100 µM (inactive)
- GI50 (LOX IMVI): > 100 µM (inactive)
- GI50 (UACC-62): > 100 µM (inactive)
- GI50 (M14): > 100 µM (inactive)
- GI50 (NCI-H226): > 100 µM (inactive)

Structure (SMILES): COc1cc([C@@H]2c3cc4c(cc3[C@@H](NCc3ccccc3F)C3COC(=O)[C@@H]32)OCO4)cc(OC)c1O (stereo partly specified)
- GI50 (SK-MEL-2): 23.4 µM (inactive)
- GI50 (HCT-116): 5.27 µM (inactive)
- GI50 (SF-268): 4.69 µM (inactive)
- GI50 (OVCAR-3): 15.6 µM (inactive)
- GI50 (SN12C): 2.62 µM (inactive)
- GI50 (SNB-75): 5.45 µM (inactive)
- GI50 (NCI-H522): 0.361 µM (active)
- GI50 (A498): 5 µM (inactive)
- GI50 (UACC-257): 3.1 µM (inactive)
- GI50 (OVCAR-4): 16.6 µM (inactive)
- GI50 (UO-31): 4.05 µM (inactive)
- GI50 (NCI-H23): 2.29 µM (inactive)
- GI50 (RXF 393): 5.18 µM (inactive)
- GI50 (HT-29): 4.78 µM (inactive)
- GI50 (LOX IMVI): 3.07 µM (inactive)
- GI50 (UACC-62): 0.463 µM (active)
- GI50 (M14): 3.01 µM (inactive)
- GI50 (NCI-H226): 2.06 µM (inactive)

Structure (SMILES): COc1cc(C2c3cc4c(cc3[C@@H](NCCN3CCCCC3)C3COC(=O)[C@H]23)OCO4)cc(OC)c1O (stereo partly specified)
- GI50 (SK-MEL-2): 2.06 µM (inactive)
- GI50 (HCT-116): 1.82 µM (inactive)
- GI50 (SF-268): 0.628 µM (active)
- GI50 (OVCAR-3): 1.04 µM (active)
- GI50 (SN12C): 2.04 µM (inactive)
- GI50 (SNB-75): 0.256 µM (active)
- GI50 (A498): 0.237 µM (active)
- GI50 (UACC-257): 2.93 µM (inactive)
- GI50 (OVCAR-4): 0.27 µM (active)
- GI50 (UO-31): 0.566 µM (active)
- GI50 (NCI-H23): 0.167 µM (active)
- GI50 (HT-29): 1.23 µM (inactive)
- GI50 (LOX IMVI): 0.204 µM (active)
- GI50 (UACC-62): 0.298 µM (active)
- GI50 (M14): 0.324 µM (active)
- GI50 (NCI-H226): 0.0324 µM (active)
